Measurements published in patent publication US20260242427A1 (priority 2024, published 2026).

Assays:
[1] = molecular target: T1, human arginase I (hArg, Accession Number: NM_000045.4), free enzyme (Homo sapiens, UniProt P05089); assay type: biochemical; conditions: L-arginine 0-500 mM, 40° C., 50 mM HEPES pH 8.0, 0.1 mM Mn^2+
T1 construct: His tag with thrombin site of pET28 (inferred from the NdeI primer, the stop codon in the reverse primer and nickel purification); made in house; host or cells: E. coli BL21(DE3)
Description: All positive colonies were verified by DNA sequencing (BGI).
Expression and Purification of ODC and hArg Free Enzymes
(§1) All experiments were performed in triplicate.
as §1

[2] = molecular target: T2, hArg-Cry1Ab fusion particles (human arginase I fused to the N-terminus of Cry1Ab) (Homo sapiens, UniProt P05089); assay: Kinetic studies, immobilized hArg-Cry1Ab particles; assay type: biochemical; conditions: L-arginine 0-500 mM, 40° C., pH 8.0, 0.1 mM Mn^2+, based on concentration of hArg
T2 construct: His tag of pET28 (inferred from the NdeI forward primer only) (N); made in house; host or cells: E. coli BL21(DE3)

[3] = molecular target: T3, 3A-PEI crystals (polyethylenimine-modified Cry3Aa, Bacillus thuringiensis) (Bacillus thuringiensis subsp. tenebrionis, UniProt P0A379); assay: NADH binding capacity of 3A-PEI crystals; conditions: NaPB 25 mM
T3 construct: made in house; host or cells: Bacillus thuringiensis BT407G
T3 sequence (P0A379 1-644): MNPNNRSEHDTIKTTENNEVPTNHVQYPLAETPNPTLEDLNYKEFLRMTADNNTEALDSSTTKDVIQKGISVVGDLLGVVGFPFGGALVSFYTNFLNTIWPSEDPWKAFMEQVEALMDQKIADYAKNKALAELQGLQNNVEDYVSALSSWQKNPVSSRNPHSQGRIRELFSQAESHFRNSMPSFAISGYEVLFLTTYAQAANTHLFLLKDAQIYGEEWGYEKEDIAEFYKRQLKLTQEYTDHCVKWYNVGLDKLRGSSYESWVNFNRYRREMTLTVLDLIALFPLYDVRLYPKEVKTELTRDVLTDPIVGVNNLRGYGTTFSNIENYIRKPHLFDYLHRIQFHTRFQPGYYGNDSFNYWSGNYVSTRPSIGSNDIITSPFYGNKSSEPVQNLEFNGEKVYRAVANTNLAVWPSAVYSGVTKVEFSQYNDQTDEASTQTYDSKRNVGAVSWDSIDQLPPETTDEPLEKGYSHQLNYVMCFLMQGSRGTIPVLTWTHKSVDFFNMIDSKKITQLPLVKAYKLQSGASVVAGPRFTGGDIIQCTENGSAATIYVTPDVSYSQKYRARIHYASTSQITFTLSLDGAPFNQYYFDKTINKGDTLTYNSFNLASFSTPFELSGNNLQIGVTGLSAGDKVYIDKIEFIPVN

[4] = molecular target: T4, Pos3Aa crystals (positively charged variant of Cry3Aa, domain II surface residues mutated) (Bacillus thuringiensis, UniProt P0A379); assay: NADH binding capacity of Pos3Aa crystals; conditions: 0.25 mM NADH, 10° C., 30 min, 340 nm
T4 construct: engineered Cry3Aa, domain II surface residues replaced by Lys/Arg; no PEI; crystals produced in Bacillus thuringiensis (usual host)
Description: Previous studies by our lab had generated a positively charged variant of Cry3Aa, Pos3Aa, by mutating multiple residues on the surface of domain II of Cry3Aa to lysines creating a positively charged surface.
To compare the binding capacity of 3A-PEI crystals with Cry3Aa and Pos3Aa crystals, the same experiment was conducted as the control.
Cry3Aa is a self-crystallization protein produced naturally by certain strains of Bt. Our group has used crystals and particles of Cry3Aa for entrapment of positively charged small peptides and proteins due to the presence of abundant negatively charged residues, aspartic acid (Asp) and glutamic acid (Glu) residues, on the exposed surface of its domain II, which forms the solvent channels (FIG. 1A). We have engineered a protein called Pos3Aa, derived from the replacement of all these residues in domain II of Cry3Aa with positively charged arginine (Arg) and lysine (Lys) residues, which provide positively charged channels within the crystals. We hypothesized that these crystals would be able to entrap negatively charged molecules, such as phosphorylated cofactors, ionically inside the channels. […] Each molecular mass unit of this polymer (43 kDa) has 3 to 3.6-fold higher protonated nitrogen than poly-Arg and poly-Lys (one positive charge per 157 and 129 molecular masses), respectively. […]

[5] = molecular target: T1, human arginase I (hArg, Accession Number: NM_000045.4), free enzyme; assay: Effect of urea on the activity of hArg; assay type: biochemical; conditions: 0 to 1 M urea, 40° C., 6 h
Description: as §1, §1

T1 sequence (P05089 whole entry): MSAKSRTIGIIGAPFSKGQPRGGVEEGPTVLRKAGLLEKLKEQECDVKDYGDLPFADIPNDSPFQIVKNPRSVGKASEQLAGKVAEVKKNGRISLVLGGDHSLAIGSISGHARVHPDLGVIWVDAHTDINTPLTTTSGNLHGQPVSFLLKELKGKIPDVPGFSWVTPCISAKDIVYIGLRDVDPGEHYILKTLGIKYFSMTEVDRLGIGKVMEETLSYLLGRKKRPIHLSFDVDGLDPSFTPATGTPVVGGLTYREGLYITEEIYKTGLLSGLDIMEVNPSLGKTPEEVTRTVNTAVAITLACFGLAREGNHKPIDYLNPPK
T2 sequence (P05089 other isoform, or with tags, fused parts or gaps): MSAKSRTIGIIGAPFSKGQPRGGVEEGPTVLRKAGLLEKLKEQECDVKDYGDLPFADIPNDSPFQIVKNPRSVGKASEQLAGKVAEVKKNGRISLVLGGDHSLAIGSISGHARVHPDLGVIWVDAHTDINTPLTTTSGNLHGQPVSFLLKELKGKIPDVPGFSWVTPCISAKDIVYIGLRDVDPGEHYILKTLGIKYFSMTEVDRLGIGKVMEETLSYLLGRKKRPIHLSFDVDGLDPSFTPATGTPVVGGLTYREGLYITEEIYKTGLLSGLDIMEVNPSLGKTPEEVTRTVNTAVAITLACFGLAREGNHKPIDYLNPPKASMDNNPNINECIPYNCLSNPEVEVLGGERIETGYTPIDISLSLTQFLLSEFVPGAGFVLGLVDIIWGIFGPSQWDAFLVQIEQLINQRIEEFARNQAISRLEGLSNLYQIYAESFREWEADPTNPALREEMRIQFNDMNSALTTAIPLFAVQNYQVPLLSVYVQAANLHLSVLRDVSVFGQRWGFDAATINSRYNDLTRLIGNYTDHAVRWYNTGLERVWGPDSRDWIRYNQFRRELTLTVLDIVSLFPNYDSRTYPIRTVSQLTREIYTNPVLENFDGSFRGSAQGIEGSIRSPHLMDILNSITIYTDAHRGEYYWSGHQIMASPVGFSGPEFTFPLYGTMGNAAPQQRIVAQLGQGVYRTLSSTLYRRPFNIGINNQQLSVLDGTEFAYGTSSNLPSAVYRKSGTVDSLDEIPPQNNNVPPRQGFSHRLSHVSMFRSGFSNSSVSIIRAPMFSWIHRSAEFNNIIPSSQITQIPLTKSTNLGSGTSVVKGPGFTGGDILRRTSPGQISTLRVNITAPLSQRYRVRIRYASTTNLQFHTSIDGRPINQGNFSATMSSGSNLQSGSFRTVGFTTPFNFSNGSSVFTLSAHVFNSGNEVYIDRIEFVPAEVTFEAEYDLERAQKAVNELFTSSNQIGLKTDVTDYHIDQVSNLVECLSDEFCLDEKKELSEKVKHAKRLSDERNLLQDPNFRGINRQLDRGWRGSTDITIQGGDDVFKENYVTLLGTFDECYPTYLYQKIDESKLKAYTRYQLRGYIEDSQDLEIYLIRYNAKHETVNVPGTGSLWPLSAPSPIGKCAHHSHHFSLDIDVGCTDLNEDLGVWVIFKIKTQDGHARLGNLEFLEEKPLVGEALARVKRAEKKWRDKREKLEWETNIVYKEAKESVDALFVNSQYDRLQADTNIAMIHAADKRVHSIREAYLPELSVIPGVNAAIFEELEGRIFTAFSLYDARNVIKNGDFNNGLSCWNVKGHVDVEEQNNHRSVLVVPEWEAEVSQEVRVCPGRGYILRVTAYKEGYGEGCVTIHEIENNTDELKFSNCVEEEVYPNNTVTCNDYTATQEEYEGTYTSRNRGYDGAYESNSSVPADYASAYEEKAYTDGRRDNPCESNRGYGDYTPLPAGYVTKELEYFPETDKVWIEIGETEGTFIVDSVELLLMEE

Compound `N=C(N)NCCC[C@H](N)C(=O)O` [L-arginine] has a kcat [1] of 99.9 ± 1.7 s⁻¹, a Km ([1]; read-out: appKm) of 20 ± 1.3 mM and a kcat [2] of 59.7 ± 0.8 s⁻¹. The Km ([2]; read-out: appKm) was 18.5 ± 0.3 mM.
`NC(=O)C1=CN([C@@H]2O[C@H](COP(=O)(O)OP(=O)(O)OC[C@H]3O[C@@H](n4cnc5c(N)ncnc54)[C@H](O)[C@@H]3O)[C@@H](O)[C@H]2O)C=CC1` [NADH, nicotinamide adenine dinucleotide] gave an NADH binding capacity ([3]; pH 6.0) of 453.5 ± 2.8 µmol/g, an NADH binding capacity ([3]; pH 7.0) of 412 ± 4 µmol/g and an NADH binding capacity ([3]; pH 8.0) of 350.2 ± 3.6 µmol/g. It also gave an NADH binding capacity [4] of 11.2 ± 0.7 µmol/g.
In the case of `NC(N)=O` [urea], the “effect of urea on activity” value [5] is reported as “unaffected”.
